Experimental data reported in patent US5618836A, “[4-(1,2-epoxycyclohexanyl)but-3-en-1-ynyl]aromatic and heteroaromatic acids and derivatives having retinoid-like biological activity” (Allergan, priority 1995, dated 1997).

Tested on: ornithine decarboxylase (ODC)
Assay: not given
Details: in words; background statement; cited from earlier work

SMILES | inhibition of induction of ODC activity by TPA
CC1=C(/C=C/C(C)=C/C=C/C(C)=C/C(=O)O)C(C)(C)CCC1 [Retinoic acid] | inhibits this induction of ODC activity by TPA

Tested on: ornithine decarboxylase (ODC)
Assay: Inhibition of TPA induction of ornithine decarboxylase (ODC) activity
Type: in vivo
Details: inhibition of TPA-induced ODC; assay essentially per Cancer Res: 1662-1670, 1975
Description: The retinoid-like activity of these compounds is confirmed through the classic measure of retinoic acid activity involving the effects of retinoic acid on ornithine decarboxylase. The original work on the correlation between retinoic acid and decrease in cell proliferation was done by Verma & Boutwell, Cancer Research, 1977, 37,2196-2201. That reference discloses that ornithine decarboxylase (ODC) activity increased precedent to polyamine biosynthesis. It has been established elsewhere that increases in polyamine synthesis can be correlated or associated with cellular proliferation. Thus, if ODC activity could be inhibited, cell hyperproliferation could be modulated. Although all causes for ODC activity increases are unknown, it is known that 12-O-tetradecanoylphorbol-13-acetate (TPA) induces ODC activity.

SMILES | IC80
CCOC(=O)c1ccc(C#C/C=C/C23OC2(C)CCCC3(C)C)nc1 (racemic) [Compound 5, Ethyl (±)-6-[(3E)-4-(1,2-Epoxy-2,6,6-trimethylcyclohexanyl)but-3-en-1-ynyl)nicotinate] | 0.00107 µM
CC1(C)CCCC2(C)OC12/C=C/C#Cc1ccc(C(=O)O)cc1 (racemic) [Compound 1, (±)-4-[(3E)-4-(1,2-Epoxy-2,6,6-trimethylcyclohexan-yl)but-3-en-1-ynyl)]benzoic acid] | 0.0048 µM
CCOC(=O)c1ccc(C#C/C=C/C23OC2(C)CCCC3(C)C)s1 (racemic) [Compound 6, Ethyl(±)-5-[(3E)-4-(1,2-Epoxy-2,6,6-trimethylcyclohexanyl)but-3-en-1-ynyl)]-2thiophenecarboxylate] | 0.016 µM
CC1(C)CCCC2(C)OC12/C=C/C#Cc1ccc(C(=O)O)cn1 (racemic) [Compound 4, (±)-6-[(3E)-4-(1,2-Epoxy-2,6,6-trimethylcyclohexan-yl)but-3-en-1-ynyl)]nicotinic acid] | 0.021 µM
CC1(C)CCCC2(C)OC12/C=C/C#Cc1ccc(C(=O)O)s1 (racemic) [Compound 3, (±)-5-[(3E)-4-(1,2-Epoxy-2,6,6-trimethylcyclohexan-yl)but-3-en-1-ynyl)]-2-thiophenecarboxylic acid] | 0.0223 µM
